Results taken from the supplement of paper PMC10307832.

Tests used:
Test in all cases: relative viability (nuclei count vs DMSO), 5 days (fraction); higher = more cells survive
[1] = compound: C1CN(CCC1C(C2=CC3=C(C=C2)OCO3)(C4=CC5=C(C=C4)OCO5)O)C(=O)OC6=CC=C(C=C6)[N+](=O)[O-] [JZL-184] + CC(=O)Nc1cccc(-n2c(=O)n(C3CC3)c(=O)c3c(Nc4ccc(I)cc4F)n(C)c(=O)c(C)c32)c1 [Trametinib] (partner 0.02 µM)
How it was run: (§1)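 Each reported value is a median over duplicate plates. It expresses relative viability: treated-well nuclei count divided by vehicle-well nuclei count. Lung cancer cell lines in 1536-well plates were dosed by pin tool a day after seeding, alone with one drug or with a fixed anchor-drug dose plus five library-drug doses (not always all listed) in √10 steps, and nuclei were counted after 5 days.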

[2] = compound: C1CN(CCC1C(C2=CC3=C(C=C2)OCO3)(C4=CC5=C(C=C4)OCO5)O)C(=O)OC6=CC=C(C=C6)[N+](=O)[O-] [JZL-184] + CS(=O)(=O)CCNCc1ccc(-c2ccc3ncnc(Nc4ccc(OCc5cccc(F)c5)c(Cl)c4)c3c2)o1 [Lapatinib] (partner 2 µM)
How it was run: as §1

[3] = compound: C1CN(CCC1C(C2=CC3=C(C=C2)OCO3)(C4=CC5=C(C=C4)OCO5)O)C(=O)OC6=CC=C(C=C6)[N+](=O)[O-] [JZL-184] + NC(=O)Nc1cc(-c2cccc(F)c2)sc1C(=O)N[C@H]1CCCNC1 [AZD7762] (partner 0.2 µM)
How it was run: as §1

[4] = compound: C1CN(CCC1C(C2=CC3=C(C=C2)OCO3)(C4=CC5=C(C=C4)OCO5)O)C(=O)OC6=CC=C(C=C6)[N+](=O)[O-] [JZL-184] + O=C(CCCCCCC(=O)Nc1ccccc1)NO [Vorinostat] (partner 1 µM)
How it was run: as §1

[5] = compound: C1CN(CCC1C(C2=CC3=C(C=C2)OCO3)(C4=CC5=C(C=C4)OCO5)O)C(=O)OC6=CC=C(C=C6)[N+](=O)[O-] [JZL-184]
How it was run: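 Viability was read as treated-well nuclei divided by vehicle-well nuclei, using the median across plates. Lung cancer cell lines in 1536-well plates were kept overnight at 37 °C, pinned with five √10-spaced library-drug doses, and after 5 days were Hoechst-stained, imaged at 4× and counted in MetaXpress. Plates passed only with control CV below 25% and at least one doubling.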

| Cell Line | relative viability ([1]; first compound 0.04 µM) | relative viability ([1]; first compound 1.265 µM) | relative viability ([1]; first compound 4 µM) | relative viability ([2]; first compound 0.04 µM) | relative viability ([2]; first compound 0.4 µM) | relative viability ([2]; first compound 1.265 µM) | relative viability ([2]; first compound 4 µM) | relative viability ([3]; first compound 0.04 µM) | relative viability ([3]; first compound 1.265 µM) | relative viability ([3]; first compound 4 µM) | relative viability ([4]; first compound 0.04 µM) | relative viability ([4]; first compound 1.265 µM) | relative viability ([4]; first compound 4 µM) | relative viability ([5]; 0.04 µM) | relative viability ([5]; 0.4 µM) | relative viability ([5]; 1.265 µM) | relative viability ([5]; 4 µM) | relative viability ([1]; first compound 0.4 µM) | relative viability ([3]; first compound 0.4 µM) | relative viability ([4]; first compound 0.4 µM) |
| --- | --- | --- | --- | --- | --- | --- | --- | --- | --- | --- | --- | --- | --- | --- | --- | --- | --- | --- | --- | --- |
| NCI-H23 | 0.409 | 0.358 | 0.392 | 1.39 | 0.969 | 1.26 | 1.07 | 0.203 | 0.25 | 0.283 | 0.62 | 0.673 | 0.502 | 1.14 | 0.767 | 1.18 | 0.998 | – | – | – |
| NCI-H1395 | 1.09 | 1.01 | 0.875 | 0.997 | 0.953 | 0.91 | 0.995 | 0.429 | 0.396 | 0.403 | 0.651 | 0.811 | 0.683 | 0.862 | 0.84 | 1.03 | 0.816 | 0.996 | 0.413 | 0.621 |
| NCI-H1666 | 0.888 | 0.856 | 0.839 | 0.647 | 0.65 | 0.585 | 0.633 | 0.915 | 0.818 | 0.923 | 1.07 | 1.01 | 1.01 | 1.01 | 1.01 | 0.967 | 1.04 | 0.828 | 0.764 | 1.02 |
| NCI-H2405 | 0.703 | 0.69 | 0.45 | 1.17 | 1.04 | 1.21 | 0.96 | 0.786 | 0.797 | 0.663 | 1.15 | 1.3 | 0.968 | 1 | 0.982 | 1.11 | 1 | 0.664 | 0.533 | 0.83 |
| HCC-78 | 0.705 | 0.912 | 0.565 | 0.634 | 0.787 | 0.755 | 0.302 | 0.594 | 0.688 | 0.618 | 0.405 | 0.492 | 0.378 | 0.793 | 0.806 | 1.13 | 1.01 | – | – | – |
| NCI-H2170 | 1.01 | 0.864 | 0.825 | 0.302 | 0.252 | 0.285 | 0.275 | 0.899 | 0.928 | 0.761 | 0.922 | 0.811 | 0.737 | 1.1 | 0.948 | 1.02 | 0.928 | 0.855 | 0.794 | 0.754 |
| NCI-H1793 | 0.433 | 0.455 | 0.438 | 0.853 | 0.492 | 0.812 | 0.422 | 0.359 | 0.742 | 0.401 | 0.663 | 0.963 | 0.64 | 0.771 | 0.735 | 1.1 | 0.845 | 0.481 | 0.465 | 0.571 |
| HCC-366 | 0.384 | 0.332 | 0.276 | 1.19 | 0.959 | 1.13 | 1.05 | 0.293 | 0.275 | 0.257 | 0.408 | 0.361 | 0.313 | 1.09 | 0.958 | 1.06 | 1.02 | 0.348 | 0.209 | 0.242 |
| NCI-H1651 | 0.848 | 0.787 | 0.848 | 0.833 | 0.715 | 0.888 | 0.798 | 0.427 | 0.456 | 0.474 | 0.593 | 0.5 | 0.554 | 1.08 | 0.907 | 1 | 0.967 | 0.872 | 0.455 | 0.36 |
| LC-2-ad | 0.94 | 0.93 | 0.881 | 1.19 | 0.889 | 1.05 | 0.952 | 0.909 | 0.853 | 0.829 | 0.774 | 0.676 | 0.669 | 1.18 | 0.96 | 1.13 | 0.982 | 0.896 | 0.8 | 0.67 |
| HCC-827 | 0.536 | 0.583 | 0.515 | 0.228 | 0.196 | 0.234 | 0.221 | 0.147 | 0.19 | 0.206 | 0.942 | 0.577 | 0.839 | 1.02 | 0.989 | 1.02 | 1.04 | 0.55 | 0.182 | 0.244 |
| LOU-NH91 | 0.793 | 0.848 | 0.754 | 0.783 | 0.741 | 0.845 | 0.727 | 0.785 | 0.81 | 0.733 | 1.02 | 1.03 | 0.893 | 1.02 | 0.879 | 0.984 | 0.945 | 0.754 | 0.754 | 0.893 |
| LU99A | 0.574 | 0.607 | 0.638 | 1.21 | 0.966 | 1.22 | 0.963 | 0.364 | 0.346 | 0.328 | 0.567 | 0.66 | 0.548 | 1.01 | 0.774 | 1.18 | 0.968 | 0.469 | 0.363 | 0.377 |
| HOP-62 | 0.372 | 0.375 | 0.371 | 1.19 | 1 | 0.665 | 0.986 | 0.617 | 0.754 | 0.417 | 0.659 | 0.706 | 0.612 | 1.08 | 1.01 | 1.04 | 1.01 | 0.4 | 0.53 | 0.601 |
| NCI-H1734 | 0.721 | 0.72 | 0.606 | 1.22 | 0.959 | 1.15 | 1.04 | 0.571 | 0.719 | 0.625 | 0.927 | 0.844 | 0.834 | 1.12 | 0.865 | 1.03 | 0.963 | 0.611 | 0.518 | 0.762 |
